Measured values from publication PMC5882164, “A novel calcimimetic agent, evocalcet (MT-4580/KHK7580), suppresses the parathyroid cell function with little effect on the gastrointestinal tract or CYP isozymes in vivo and in vitro” (PLoS ONE, 2018).
“And” between values parts separate entries of the source, which are not always exact repeats. Equal values may be shown once.

What was measured:
serum calcium = assay: 5/6 nephrectomized rats study: serum calcium level; format: in vivo, rat; design: Serum Ca levels: unit not given here; details: 5/6 Nx rats
Method: Rats were 5/6 nephrectomized in two steps. Under anesthesia (pentobarbital, 50 mg/kg; intraperitoneally) and analgesia (lidocaine; topically), two-thirds of the left kidney was removed, and then the right kidney was removed after a seven-day interval. Seven days after the completion of 5/6 nephrectomy, the FR-2 diet was changed to a high-phosphate diet, containing 0.6% calcium and 0.9% phosphate (Oriental Yeast Co., Ltd., Tokyo, Japan). Approximately 2 weeks after the initiation of the high-phosphate diet, the 5/6 Nx rats were divided into five groups (n = 12/group) matched in terms of their body weight as well as their blood urea nitrogen (BUN) and serum PTH and calcium levels.
In the single-dose study, blood samples were collected from the tail vein before and at 0.5, 2, 4, 8, 24, 48, and 72 h after the oral administration of vehicle (0.5% methyl cellulose solution) or evocalcet (0.03, 0.1, 0.3, or 1 mg/kg). In the repeated-dose study, vehicle or evocalcet was orally administered to the respective groups once daily for 14 days. Blood samples were obtained from the tail vein before the first administration and after the seventh and last administrations.
The serum PTH level was measured using a Rat Intact PTH ELISA kit (Immutopics, Inc., San Clemente, CA). The serum calcium, phosphate and BUN levels were measured using an auto analyzer (Hitachi High-Technologies Corporation., Tokyo, Japan) or the following test kits: the Calcium E-test WAKO, the Phospha C-test WAKO, or the Blood Urea nitrogen B-test WAKO (Wako Pure Chemical Industries, Ltd., Osaka, Japan).

CYP2C9 = target: T1, CYP2C9 (Homo sapiens, UniProt P11712); assay: CYP inhibition assay in human liver microsomes; format: in vitro ADME; details: no pre-incubation, read-out: IC50 direct inhibition of CYP2C9
T1 construct: from tissue; host or cells: human liver microsomes
Method: (§1) Each CYP substrate was incubated with human liver microsomes in the absence or presence of evocalcet, and the inhibition of evocalcet for each CYP isozyme was measured.

CYP2C19 = target: T2, CYP2C19 (Homo sapiens, UniProt P33261); assay: CYP inhibition assay in human liver microsomes; format: in vitro ADME; details: no pre-incubation, read-out: IC50 direct inhibition of CYP2C19
T2 construct: from tissue; host or cells: human liver microsomes
Method: as §1

T1 sequence (P11712 whole entry): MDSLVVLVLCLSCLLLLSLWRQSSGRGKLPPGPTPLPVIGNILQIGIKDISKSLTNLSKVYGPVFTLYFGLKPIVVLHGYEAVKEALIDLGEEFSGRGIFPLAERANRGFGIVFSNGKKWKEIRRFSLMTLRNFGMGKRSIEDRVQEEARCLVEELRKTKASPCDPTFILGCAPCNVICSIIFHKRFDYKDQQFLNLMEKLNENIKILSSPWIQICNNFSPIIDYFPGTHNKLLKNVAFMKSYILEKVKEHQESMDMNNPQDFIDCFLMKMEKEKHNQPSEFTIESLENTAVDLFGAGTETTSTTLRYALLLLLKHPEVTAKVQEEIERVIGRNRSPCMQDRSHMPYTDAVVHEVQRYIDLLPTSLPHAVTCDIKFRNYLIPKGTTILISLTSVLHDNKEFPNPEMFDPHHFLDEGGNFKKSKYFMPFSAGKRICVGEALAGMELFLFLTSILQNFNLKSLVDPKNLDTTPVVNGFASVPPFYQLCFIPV
T2 sequence (P33261 whole entry): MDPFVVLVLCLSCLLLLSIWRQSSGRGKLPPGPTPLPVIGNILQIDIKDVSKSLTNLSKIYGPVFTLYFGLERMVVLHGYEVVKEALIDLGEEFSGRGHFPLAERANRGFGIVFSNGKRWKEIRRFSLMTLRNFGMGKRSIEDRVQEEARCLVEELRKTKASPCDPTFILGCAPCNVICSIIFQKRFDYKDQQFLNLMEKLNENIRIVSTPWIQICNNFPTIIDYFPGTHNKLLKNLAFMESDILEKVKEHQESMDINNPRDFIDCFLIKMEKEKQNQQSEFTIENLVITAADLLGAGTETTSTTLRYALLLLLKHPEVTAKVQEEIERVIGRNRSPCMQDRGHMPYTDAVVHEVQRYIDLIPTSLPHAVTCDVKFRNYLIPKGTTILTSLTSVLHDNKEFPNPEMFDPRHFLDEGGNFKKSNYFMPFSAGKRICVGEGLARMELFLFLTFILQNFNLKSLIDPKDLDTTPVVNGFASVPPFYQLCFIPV

## C[C@@H](N[C@H]1CCN(c2ccc(CC(=O)O)cc2)C1)c1cccc2ccccc12 [evocalcet]
Serum calcium; 0.03 mg/kg, time 8 h, group mean
  Serum Ca levels after the first administration, Mean: 7.889
Serum calcium; 0.03 mg/kg, time 8 h, individual rats
  Serum Ca levels after the first administration: 7.265 and 7.625 and 7.368 and 8.097 and 7.474 and 8.633
Serum calcium; 0.03 mg/kg, time 24 h, group mean
  Serum Ca levels after the first administration, Mean: 7.657
Serum calcium; 0.03 mg/kg, time 24 h, individual rats
  Serum Ca levels after the first administration: 7.337 and 7.644 and 7.429 and 7.568 and 7.040 and 8.620
Serum calcium; 0.1 mg/kg, day 0 (Before), group mean
  Serum Ca levels before (day 0) and 24 h after evocalcet administration, Mean: 7.709
Serum calcium; 0.1 mg/kg, day 0 (Before), individual rats, 0.1 mg/kg
  Serum Ca levels before (day 0) and 24 h after evocalcet administration: 7.331 and 8.275 and 7.642 and 7.659 and 8.173 and 8.364 and 6.513 and 7.933 and 8.070 and 7.690 and 6.674 and 8.180
Serum calcium; 0.1 mg/kg, day 7 (24 h), group mean
  Serum Ca levels before (day 0) and 24 h after evocalcet administration, Mean: 7.317
Serum calcium; 0.1 mg/kg, day 7 (24 h), individual rats, 0.1 mg/kg
  Serum Ca levels before (day 0) and 24 h after evocalcet administration: 7.427 and 8.099 and 7.493 and 7.242 and 7.637 and 7.025 and 6.448 and 7.138 and 7.123 and 6.680 and 7.302 and 8.184
Serum calcium; 0.1 mg/kg, day 14 (24 h), group mean
  Serum Ca levels before (day 0) and 24 h after evocalcet administration, Mean: 7.011
Serum calcium; 0.1 mg/kg, day 14 (24 h), individual rats, 0.1 mg/kg
  Serum Ca levels before (day 0) and 24 h after evocalcet administration: 7.048 and 7.642 and 6.969 and 7.601 and 6.617 and 6.853 and 5.928 and 7.145 and 7.117 and 6.576 and 7.375 and 7.261
Serum calcium; 0.1 mg/kg, time 0 h, group mean
  Serum Ca levels after the first administration, Mean: 7.709
Serum calcium; 0.1 mg/kg, time 0 h, individual rats
  Serum Ca levels after the first administration: 7.331 and 8.275 and 7.642 and 7.659 and 8.173 and 8.364 and 6.513 and 7.933 and 8.070 and 7.690 and 6.674
Serum calcium; 0.1 mg/kg, time 0.5 h, group mean
  Serum Ca levels after the first administration, Mean: 6.755
Serum calcium; 0.1 mg/kg, time 0.5 h, individual rats
  Serum Ca levels after the first administration: 6.761 and 6.580 and 6.840 and 7.344 and 6.409 and 6.926 and 6.241 and 6.919 and 6.445 and 6.968 and 6.307
Serum calcium; 0.1 mg/kg, time 2 h, group mean
  Serum Ca levels after the first administration, Mean: 6.694
Serum calcium; 0.1 mg/kg, time 2 h, individual rats
  Serum Ca levels after the first administration: 6.582 and 6.412 and 6.604 and 7.150 and 6.977 and 6.857 and 5.795 and 6.903 and 7.147 and 6.715 and 6.267
Serum calcium; 0.1 mg/kg, time 4 h, group mean
  Serum Ca levels after the first administration, Mean: 7.099
Serum calcium; 0.1 mg/kg, time 4 h, individual rats
  Serum Ca levels after the first administration: 7.060 and 7.085 and 7.028 and 7.482 and 7.364 and 7.406 and 5.948 and 7.326 and 7.361 and 7.050 and 6.742
Serum calcium; 0.1 mg/kg, time 8 h, group mean
  Serum Ca levels after the first administration, Mean: 7.285
Serum calcium; 0.1 mg/kg, time 8 h, individual rats
  Serum Ca levels after the first administration: 7.692 and 7.609 and 7.307 and 7.085 and 7.975 and 4.442 and 6.559 and 7.908 and 8.235 and 7.683
Serum calcium; 0.1 mg/kg, time 24 h, group mean
  Serum Ca levels after the first administration, Mean: 7.626
Serum calcium; 0.1 mg/kg, time 24 h, individual rats
  Serum Ca levels after the first administration: 7.618 and 8.042 and 7.976 and 7.739 and 7.539 and 7.979 and 6.079 and 7.486 and 8.194 and 7.356
Serum calcium; 0.3 mg/kg, day 0 (before), group mean
  Serum Ca levels: 7.177
Serum calcium; 0.3 mg/kg, day 0 (before), individual rats, 0.3 mg/kg
  Serum Ca levels: 7.714 and 7.098 and 4.207 and 6.520 and 8.019 and 4.857 and 7.006 and 8.419 and 8.245 and 7.878 and 7.711 and 8.450
Serum calcium; 0.3 mg/kg, day 7 (24 h after administration), group mean
  Serum Ca levels: 5.744
Serum calcium; 0.3 mg/kg, day 7 (24 h after administration), individual rats, 0.3 mg/kg
  Serum Ca levels: 6.617 and 4.991 and 5.484 and 4.834 and 5.302 and 6.718 and 6.297 and 6.366 and 7.085 and 5.154 and 4.887 and 5.195
Serum calcium; 0.3 mg/kg, day 14 (24 h after administration), group mean
  Serum Ca levels: 5.948
Serum calcium; 0.3 mg/kg, day 14 (24 h after administration), individual rats, 0.3 mg/kg
  Serum Ca levels: 6.601 and 5.324 and 6.337 and 4.673 and 5.104 and 7.592 and 6.733 and 6.057 and 5.865 and 5.887 and 5.547 and 5.661
Serum calcium; 0.3 mg/kg, time 0 h, group mean
  Serum Ca levels after the first administration, Mean: 7.177
Serum calcium; 0.3 mg/kg, time 0.5 h, group mean
  Serum Ca levels after the first administration, Mean: 6.778
Serum calcium; 0.3 mg/kg, time 2 h, group mean
  Serum Ca levels after the first administration, Mean: 6.136
Serum calcium; 0.3 mg/kg, time 4 h, group mean
  Serum Ca levels after the first administration, Mean: 6.714
Serum calcium; 0.3 mg/kg, time 8 h, group mean
  Serum Ca levels after the first administration, Mean: 7.218
Serum calcium; 0.3 mg/kg, time 24 h, group mean
  Serum Ca levels after the first administration, Mean: 7.101
Serum calcium; 1 mg/kg, day 0 (before), group mean
  Serum Ca levels: 7.784
Serum calcium; 1 mg/kg, day 0 (before), individual rats, 1 mg/kg
  Serum Ca levels: 7.396 and 7.591 and 7.831 and 7.728 and 8.433 and 7.868 and 8.231 and 7.824 and 8.217 and 9.292 and 6.900 and 6.102
Serum calcium; 1 mg/kg, day 7 (24 h after administration), group mean
  Serum Ca levels: 5.027
Serum calcium; 1 mg/kg, day 7 (24 h after administration), individual rats, 1 mg/kg
  Serum Ca levels: 5.540 and 3.798 and 5.148 and 4.511 and 4.963 and 5.487 and 4.665 and 5.044 and 4.307 and 5.493 and 4.570 and 6.793
Serum calcium; 1 mg/kg, day 14 (24 h after administration), group mean
  Serum Ca levels: 4.801
Serum calcium; 1 mg/kg, day 14 (24 h after administration), individual rats, 1 mg/kg
  Serum Ca levels: 5.359 and 3.730 and 4.903 and 4.736 and 4.928 and 5.192 and 4.708 and 5.906 and 3.598 and 4.859 and 4.220 and 5.475
Serum calcium; 1 mg/kg, time 0 h, group mean
  Serum Ca levels after the first administration, Mean: 7.784
Serum calcium; 1 mg/kg, time 0.5 h, group mean
  Serum Ca levels after the first administration, Mean: 6.460
Serum calcium; 1 mg/kg, time 2 h, group mean
  Serum Ca levels after the first administration, Mean: 5.290
Serum calcium; 1 mg/kg, time 4 h, group mean
  Serum Ca levels after the first administration, Mean: 5.870
Serum calcium; 1 mg/kg, time 8 h, group mean
  Serum Ca levels after the first administration, Mean: 6.299
Serum calcium; 1 mg/kg, time 24 h, group mean
  Serum Ca levels after the first administration, Mean: 6.253
Serum calcium; once daily oral for 14 days, 24 h after administration on days 7 and 14
  Doses that steadily decreased the serum calcium level: ≥ 0.3 mg/kg
Serum calcium; single oral dose, vs vehicle group
  Doses that significantly decreased the serum calcium level: ≥ 0.1 mg/kg
CYP2C9
  IC50: > 50 µM
CYP2C19
  IC50: > 50 µM
